B1: GST-MATR3(2-151) (other)
chain: SKSFQQSSLSRDSQGHGRDLSAAGIGLLAAATQSLSMPASLGRMNQGTARLASLMNLGMSSSLNQQGAHSALSSASTSSHNLQSIFNIGSRGPLPLSSQHRGDADQASNILASFGLSARDLDELSRYPEDKITPENLPQILLQLKRRRTE
notes: not shown: GST tag and thrombin site of vector pGEX-2tk

Key:
DUX4 dbd = target: T1, DUX4 dbd (Homo sapiens, UniProt Q9UBX2); experiment: His pull-down assay; assay type: binding; settings: purified His-DUX4 dbd immobilized, biotinylated MATR3 peptides
T1 construct: employing pETGB1-6xHis-DUX4 dbd (residues 1-159) vector as template; GB1; made in house; host or cells: E. coli Rosetta2(DE3) pLys
Experimental: To test the interaction between 6xHis-DUX4 dbd and MATR3 synthetic peptides (prepared by CASLO; Lot No.: P230321-01-01, P230321-01-02, Lot No.: P230321-01-03), 40 pmol of 6xHis-DUX4 dbd were immobilized on His-Select Nickel Affinity gel beads (Sigma) incubating 1 hour on rotation at 4°C in IPP100 buffer (10 mM Tris-HCl pH 8.00, 100 mM NaCl, 0.1% NP-40) supplemented with 0,1 mM PMSF. Next, 4 pmol of MATR3 synthetic peptides were added incubating on rotation for 2 hours at 4°C. MATR3 peptides were incubated with the beads as negative control. Beads were washed 4 times with IPP100 buffer, boiled in 50 µl of Laemmli Sample Buffer (Bio-Rad), centrifuged and the eluted proteins were collected. Samples were stored at -20°C. Pull-down samples were boiled at 95°C for 5 minutes and bounded fractions (10%) were loaded on 15% SDS-Page acrylamide gel. The immunoblotting was performed following the procedure reported above but the wet transfer was performed at 200mA for 1.5 hours (instead of 2 hours) at 4°C. To test the interaction between DUX4 dbd and 6xHis-SUM03-MATR3(210-255), 40 pmol of 6xHis-SUMO3-MATR3(210-255) were immobilized on His-Select Nickel Affinity gel beads (Sigma) incubating 1 hour on rotation at 4°C in IPP100 buffer (10 mM Tris-HCl pH 8.00, 100 mM NaCl, 0.1% NP-40) supplemented with 0,1 mM PMSF. Next, 40 pmol of DUX4(15-155) without tag were added incubating on rotation for 2 hours at 4°C. DUX4(15-155) alone was incubated with the beads as negative control. Beads were washed 4 times with IPP100 buffer, boiled in 50 µl of Laemmli Sample Buffer (Bio-Rad), centrifuged and the eluted proteins were collected. Samples were stored at -20°C. Pull-down samples were boiled at 95°C for 5 minutes and bounded fractions (10%) were loaded on two identical 15% SDS-Page acrylamide gel. The immunoblotting was performed following the procedure reported below.

6xHis-DUX4 dbd = target: T2, 6xHis-DUX4 dbd (UniProt Q9UBX2 1-159); experiment: GST pull-down with purified recombinant proteins
T2 construct: range 1-159; Expressed in E. coli from pET-GB1 and purified on nickel beads; The limits 1-159 come from the phrase pETGB1-6xHis-DUX4 dbd (residues 1-159); also called DUX4 dbd (HD1+HD2); not shown: 6xHis tag and GB1 solubility peptide of vector pET-GB1
T2 sequence (Q9UBX2 1-159): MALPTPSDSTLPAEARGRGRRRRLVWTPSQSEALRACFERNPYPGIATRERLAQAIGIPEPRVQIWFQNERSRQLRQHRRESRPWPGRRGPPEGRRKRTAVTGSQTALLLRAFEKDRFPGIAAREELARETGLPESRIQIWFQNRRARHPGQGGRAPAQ

T1 sequence (Q9UBX2 1-159): as above

| Molecule | interaction with DUX4 dbd (pulldown, synthetic peptides) (DUX4 dbd) | interaction with DUX4 dbd (pulldown, synthetic peptides) (DUX4 dbd; listed as Pep 3) | interaction with DUX4 dbd (pulldown, synthetic peptides) (DUX4 dbd; listed as Pep 2) | binding result (6xHis-DUX4 dbd) |
| --- | --- | --- | --- | --- |
| (Biotin)- ERCRDDSFFGETSHNYHKFDSEYERMGRGPG PLQERSLFEKKRGAPPSSNIEDFHGLLPK -NH2 [Peptide 3] | interacted with DUX4 dbd | interact with DUX4 dbd |  |  |
| (Biotin)- SFDDRGPSLNPVLDYDHGSRSQESGYYDRMD YEDDRLRDGERCRDDSFFGETSHNYHKFDS-NH2 [Peptide 2] | interacted with DUX4 dbd |  | interact with DUX4 dbd |  |
| B1 |  |  |  | no binding (tested: 40 pmol each) |

— EP4389762A1, “INHIBITORS OF DUX4 ACTIVITY AND THEIR USE IN THERAPY” (Ospedale San Raffaele S.r.l., priority 2022, dated 2024)
